Experimental data published in patent publication US7655620B2, “Use of one or more metal carriers to selectively kill mammalian cells” (Cancure Laboratories, LLC, priority 2005, dated 2010).
Entries after “also recorded” stand apart in the source; their conditions may differ.

Assays:
cancer cells = experiment: Killing of cancer cells by dithiocarbamates in the absence or presence of cadmium/zinc; format: cell-based; conditions: for effectiveness in killing cancer cells in comparison to CCK3: 10-50 μM, absence or presence of 20 μM CdCl2/ZnCl2; for induction of cell death in the presence of cadmium or zinc: in vitro
Procedure: A large number of dithiocarbamates can be synthesized that, similar to 3-aminopropylpiperidine-1-carbodithioate (CCK3), contain a free amino group. Several of these compounds were synthesized and tested (in the range of 10-50 μM concentration) on cancer cells in the absence or presence of 20 μM CdCl2/ZnCl2 in comparison to CCK3, as follows. […] Similarly, 1-{[(3-aminopropyl)thio]carbonothiol}pyrrolidine-2-carboxilic acid.HCl salt (for structure see FIG. 1) was ineffective both in the absence and presence of cadmium/zinc. The last two compounds may be ineffective because the presence of carboxyl group may interfere with proper binding of cadmium and zinc to the molecule. 3-Aminopropylpyrrolidine-1-carbodithionate. […] From this list, it appears that not every free amino group-containing dithiocarbamate can effectively kill cells in the presence of cadmium and zinc. In some of these cases the metal atom may bind to the dithiocarbamate molecule too strongly (covalently), not allowing dissociation of the metal from the molecule once inside the cell. After comparison of the above compounds with the effects of CCK3, further experiments were principally carried out with PDC and CCK3. These are representative compounds that can be the most effectively and most economically used when either no further modification of the molecule is required (PDC) or when modification with a targeting moiety is required (CCK3).

[1] = test system: T47D human mammary gland ductal carcinoma cells; experiment: Cell death judged from cell morphology (photographs); format: cell-based; conditions: 5 μM CCK3, 10 μM cadmium, alone or in combination; 4 hours; 10% serum-containing medium
T47D cells = experiment: [3H]thymidine DNA synthesis; format: cell-based, human; conditions: 5 μM CCK3, 10 μM cadmium, alone or in combination; 4 hours; [3H]thymidine during last 30 min
Procedure: (§1) Biochem. Biophys. Res. Commun. 213, 980-985]. […] Survival values obtained with untreated cells were considered 100%. […] Cancer Res. 47, 936-942].
T47D Cells were cultured in RPMI 1640 cell culture medium (see Gibco Catalogue) supplied with 2 mM L-glutamine, 10 mM Hepes, 1 mM sodium pyruvate, 4.5 g/L glucose, 1.5 g/L sodium bicarbonate, 0.2 I.U. bovine insulin/ml, and 10% fetal bovine serum. The medium was changed for fresh 10% serum-containing medium 2 hours prior to treatments. For the treatments, the cells were incubated in triplicate in 12-well plates. The cells were untreated (FIG. 2A) or treated with 5 μM CCK3 alone (FIG. 2B), 10 μM cadmium alone (FIG. 2C), or 5 μM CCK3 and 10 μM cadmium in combination (FIG. 2D) for 4 hours in 10% serum-containing medium when the photographs were taken. […] Finally, cells were incubated with [^3H]thymidine (1 μCi/ml) during the last 30 min of treatment to determine DNA synthesis. Cadmium and CCK3 decreased DNA synthesis by 13 and 8% respectively, while in combination they had practically 100% inhibitory effect.

[2] = test system: MDA-MB-231 human mammary gland adenocarcinoma cells; experiment: Cell death judged from cell morphology (photographs); format: cell-based; conditions: 5 μM CCK3, 10 μM cadmium, alone or in combination; 60 min; 10% serum-containing medium
Procedure: (§2) MDA-MB-231 cells were cultured in Leibovitz's L-15 medium and 10% fetal bovine serum; the medium was changed 2 hours prior to treatments. For the treatments, cells were incubated in triplicate in 12-well plates. A typical experiment with these cells is illustrated in FIG. 3. The cells were untreated (FIG. 3A) or treated with 5 μM CCK3 (FIG. 3B), 10 μM cadmium (FIG. 3C), or 5 μM CCK3+10 μM cadmium (FIG. 3D) for 60 min in 10% serum-containing medium. […] In some experiments, cells were also incubated with [^3H]thymidine (1 μCi/ml) during the last 30 min of treatment to determine DNA synthesis. Cadmium and […] decreased DNA synthesis by 6 and 12%, while in combination they had 100% inhibitory effect.
(§3) The cells were cultured as described in Example 4. The cadmium/MT contained 5 cadmium atoms per one MT molecule while zinc/MT contained 5 zinc atoms per one MT molecule. […] Thus, in this cell line cadmium/MT+PDC killed cells more rapidly and efficiently compared to the same amount of zinc/MT+PDC.

[3] = test system: various cancer and human normal 966 SK skin fibroblasts; experiment: MTT assay, statements over all cell lines of Example 6; format: cell-based; conditions: CCK3 10 μM, cadmium/MT 60 μg/ml, alone or combined, 24 hour
Procedure: as §1
MCF-7 estrogen receptor positive human breast carcinoma cells and CaOV-3 human ovarian adenocarcinoma cells were grown in Dulbecco's modified Eagle's medium containing 4 mM L-glutamine, 1.5 g/L sodium bicarbonate, 4.5 g/L glucose, 1 mM sodium pyruvate and 10% fetal bovine serum. T47D human mammary gland ductal carcinoma cells and ZR-75-1 estrogen receptor positive human mammary gland ductal carcinoma cells were cultured in RPMI 1640 medium as indicated above. MB-468 and MB-231 human mammary gland adenocarcinoma cells were maintained in Leibovitz's L-15 medium as described above. AN3CA human endometrial adenocarcinoma and 966 SK normal human skin fibroblasts were cultured in Eagles's minimum essential medium supplemented with 0.1 mM non-essential amino acids and 10% fetal bovine serum. The preparation of MT (from Sigma-Aldrich, Inc.) used in this experiment contained about 4 ions of cadmium and only about 0.3 ions of zinc per MT molecule. […] The MTT assay was used for the determination of relative cell numbers. Data are illustrated in FIG. 4 as rates of growth inhibition (maximum inhibition=100%) in comparison to values without treatment. The error bars indicate S.D. (n=8). […]

[4] = test system: ZR-75-1 human breast cancer cells; experiment: Cell death judged from cell morphology (photographs); format: cell-based
Procedure: ZR-75-1 cells were cultured in triplicate in 12-well plates in the medium described in Example 4. The cadmium/MT contained 5 atoms of cadmium and 1 atom of zinc, while the zinc/MT contained 5 atoms of zinc and 1 atom of cadmium per one MT molecule. ZR-75-1 cells were incubated in 10% serum-containing medium for 24 h in the absence (FIG. […] 6D), 240 μg/ml of zinc/MT (FIG. […] 6F).
(§4) Cells were cultured in triplicate in 12-well plates as described in Example 4. The ratio of cadmium and zinc in cadmium/MT was 5:1 per one MT molecule. ZR-75-1 cells were incubated in 10% serum-containing medium for 8 hours in the absence (FIG. 7A) or presence of 20 μM CCK3 (FIG. 7B), 120 μg/ml of cadmium/MT (FIG. 7C), or 120 μg/ml of cadmium/MT+20 μM CCK3 (FIG. 7D).

ZR-75-1 cells = test system: ZR-75-1 cells
Procedure: Biochem. Biophys. Res. Commun. […] Survival values obtained with untreated cells were considered 100%.
ZR-75-1 cells were cultured in triplicate in 12-well plates in the medium described in Example 4. The cadmium/MT contained 5 atoms of cadmium and 1 atom of zinc, while the zinc/MT contained 5 atoms of zinc and 1 atom of cadmium per one MT molecule. ZR-75-1 cells were incubated in 10% serum-containing medium for 24 h in the absence (FIG. 6A) or presence of 15 μM CCK3 (FIG. 6B), 60 μg/ml of cadmium/MT (FIG. 6C), 60 μg/ml of cadmium/MT+15 μM CCK3 (FIG. 6D), 240 μg/ml of zinc/MT (FIG. 6E), or 240 μg/ml of zinc/MT+15 μM CCK3 (FIG. 6F).
as §4

MCF-7 cells [5] = experiment: Cell death judged from cell morphology (photographs); format: cell-based, human; conditions: 20 μM CCK3, 120 μg/ml cadmium/MT, alone or combined; 8 hours; 10% serum
Procedure: (§5) The cells were cultured as described in Example 4.

MCF-7 cells [6] = experiment: Trypan blue exclusion assay; format: cell-based, human; conditions: 20 μM CCK3, 120 μg/ml cadmium/MT, alone or combined; 8 hours
Procedure: as §1, §5

[7] = test system: cancer cells (CaOV-3, T47D and PC-3); experiment: MTT assay / killing, statements over several cancer cell lines (metal/MTLP-25); format: cell-based, human; conditions: 20 μM CCK3, 100 μg/ml metal/MTLP-25, 24 hours; summary of Table 1
Procedure: The concentration range for these cadmium/MTLP-25 effects in some embodiments is 10-600 μg/ml, while in other embodiments, the concentration range is 50-200 μg/ml. Therapeutically effective concentrations of metal/MTLP-25 and CCK3 or PDC exert maximal effects on tumors without causing significant toxicity.
PC-3 human prostate adenocarcinoma cells were maintained and treated in Ham's F12K medium containing 7% fetal bovine serum. The CaOV-3 human ovarian adenocarcinoma cells were maintained and treated in Dulbecco's modified Eagle's medium containing 4 mM L-glutamine, 1.5 g/L sodium bicarbonate, 4.5 g/L glucose, 1 mM sodium pyruvate and 10% fetal bovine serum. T47D were maintained and treated in RPMI 1640 cell culture medium (see Gibco Catalogue) supplied with 2 mM L-glutamine, 10 mM Hepes, 1 mM sodium pyruvate, 4.5 g/L glucose, 1.5 g/L sodium bicarbonate, 0.2 I.U. bovine insulin/ml, and 10% fetal bovine serum. The cells were incubated in 96-well plates in the medium described above for 24 hours in the absence or presence of 20 μM CCK3 and/or 100 μg/ml of cadmium/MTLP-25 or 100 μg/ml of zinc/MTLP-25 as indicated in Table 1. After the treatment period, the MTT assay was used to determine the relative cell number of viable cells. Errors are expressed as S.D. (n=8 for each treatment).

MDA-MB-231 cells = experiment: [3H]thymidine DNA synthesis; format: cell-based, human; conditions: 60 min treatment, 10 μM cadmium, alone or in combination; [3H]thymidine during last 30 min
Procedure: as §1, §2, §3

Cl.NCCCSC(=S)N1CCCC1C(=O)O (stereo not shown) [1-{[(3-aminopropyl)thio]carbonothiol}pyrrolidine-2-carboxilic acid.HCl salt]
effectiveness in killing cancer cells in comparison to CCK3 (cancer cells): ineffective

NCCCSC(=S)N1CCCCC1C(=O)O (stereo not shown) [1-{[(3-aminopropyl)thio]carbonothioyl}piperidine-2-carboxilic acid]
effectiveness in killing cancer cells in comparison to CCK3 (cancer cells): not effective at all

C[N+](C)(C)CCOC(=S)SCCCN.[Cl-] [2({[(3-aminopropyl)thio]carbonothionyl}oxy)-N,N,N-trimethylethanolamine-chloride]
effectiveness in killing cancer cells in comparison to CCK3 (cancer cells): less effective than CCK3

Cl.NCCCSC(=S)N1CCCC1 [3-Aminopropylpyrrolidine-1-carbodithionate. HCl salt]
effectiveness in killing cancer cells in comparison to CCK3 (cancer cells): significantly less effective than CCK3

Cl.NCCCSC(=S)N1CCCCC1 [CCK3, 3-aminopropylpiperidine-1-carbodithioate.HCl salt]
cell death indicated by cell morphology (cell rounding) [1]: no effects on cell morphology | decrease of DNA synthesis (T47D cells): 8% | cell death indicated by cell morphology (cell rounding) [2]: no effects on cell morphology | cell viability (FIG. 4) [3]: significantly smaller than the combined effects | cell death indicated by cell morphology ([4]; 20 μM CCK3, 120 μg/ml cadmium/MT, alone or combined, 8 hours, 10% serum): failed to significantly alter cell morphology | cell death indicated by cell morphology (FIG. 6 legend) ([4]; CCK3 10 μM, cadmium/MT 60 μg/ml, zinc/MT 240 μg/ml, alone or MT+CCK3, 24 hours): failed to significantly alter cell morphology | cells killed (trypan blue exclusion assay) (ZR-75-1 cells; 15 μM CCK3, 60 μg/ml cadmium/MT, 240 μg/ml zinc/MT, alone or MT+CCK3, 24 h): practically no effects | cells with decreased viability / killed (trypan blue exclusion assay) (ZR-75-1 cells; 20 μM CCK3, 120 μg/ml cadmium/MT, alone or combined, 8 hours): 16% | cell death indicated by cell morphology (MCF-7 cells [5]): failed to significantly alter cell morphology | cells killed (trypan blue exclusion assay) (MCF-7 cells [6]): practically no effects on viability | reduction of the viability of cancer cells [7]: no effects | induction of cell death in the presence of cadmium or zinc (cancer cells): retains its ability to carry metals inside the cells resulting in cell death; also recorded: killed the cells

S=C(S)N1CCCC1 [PDC, pyrrolidinecarbodithioic acid, reference compound]
decrease of DNA synthesis (MDA-MB-231 cells): 12%

CCN(CC)C(=S)S [diethyldithocarbamate, reference compound]
induction of cell death in the presence of cadmium or zinc (cancer cells): as effective as CCK3

cadmium
cell death indicated by cell morphology (cell rounding) [1]: no effects on cell morphology | decrease of DNA synthesis (T47D cells): 13% | cell death indicated by cell morphology (cell rounding) [2]: no effects on cell morphology | decrease of DNA synthesis (MDA-MB-231 cells): 6%
